{"source": "patent US11440932B2", "about": "“Surfactant compounds-clips for extraction and stabilization in solution of membrane proteins” (CENTRE NATIONAL DE LA RECHERCHE SCIENTIFIQUE, priority 2017, dated 2022)", "data": [{"target": "T1, BmrA (Bacillus subtilis, UniProt O06967)", "T1 construct": "His tag; made in house; host or cells: E. coli C41(DE3)", "T1 sequence (O06967 whole entry)": "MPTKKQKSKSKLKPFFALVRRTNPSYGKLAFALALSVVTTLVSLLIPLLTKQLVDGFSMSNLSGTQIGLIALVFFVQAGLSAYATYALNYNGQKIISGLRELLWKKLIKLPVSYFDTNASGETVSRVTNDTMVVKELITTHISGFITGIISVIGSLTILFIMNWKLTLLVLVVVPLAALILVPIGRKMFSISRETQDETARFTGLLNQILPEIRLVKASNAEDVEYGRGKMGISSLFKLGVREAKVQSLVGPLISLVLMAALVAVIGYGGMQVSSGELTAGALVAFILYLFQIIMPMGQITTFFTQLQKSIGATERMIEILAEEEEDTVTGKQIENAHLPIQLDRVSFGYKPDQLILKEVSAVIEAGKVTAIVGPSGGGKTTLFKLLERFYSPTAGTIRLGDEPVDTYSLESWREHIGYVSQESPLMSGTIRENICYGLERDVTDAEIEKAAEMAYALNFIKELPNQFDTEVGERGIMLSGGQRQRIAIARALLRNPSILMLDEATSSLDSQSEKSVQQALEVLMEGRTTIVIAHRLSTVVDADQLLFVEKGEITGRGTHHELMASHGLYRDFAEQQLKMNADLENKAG", "experiment": "ATPase activity of BmrA after addition of detergents", "type": "biochemical, bacterial; produced in E. coli C41 DE3", "conditions": "at extracting concentrations; relative to protein without compound", "description": "FIG. 7 depicts the effect of the detergents of the invention on the functionality of BmrA (ATPase activity, %). The membrane fraction enriched in BmrA (˜25%) diluted to 2 g/l has the compounds added to it at the concentrations (mM) indicated (panel A, from top to bottom: 3.7e 10.7 mM, 3.7e 8.6 mM, 3.7e 6.4 mM, 3.7e 4.3 mM, 3.7e 2.2 mM, 3.7e 1.1 mM, 3.7d 4 mM, 3.7d 3 mM, 3.7d 2 mM, 3.7d 1 mM, 3.7d 0.8 mM, 3.7d 0.6 mM, 3.7d 0.05 mM, 3.7d 0.03 mM, 3.7d 0.02 mM, 3.7c 13 mM, 3.7c 10.4 mM, 3.7c 10 mM, 3.7b 1.5 mM, 3.7b 0.7 mM, 3.7b 0.5 mM, 2.3gNa2 20.5 mM, 2.3gK2 19.3 mM, 2.3f 21.1 mM, 2.3e 22 mM, 2.3d 23.2 mM, 2.3a 3.2 mM, 1.5a 22 mM, DDM 20 mM, DDM 2 mM, DDM 10 mM, DOM 2 mM, DDM 1 mM, LMNG 10 mM, LMNG 1 mM, LMNG 0.1 mM, LMNG 0.01 mM, FA3 27 mM, FA3 9 mM, FA3 2 mM, FA3 1 mM, TX100 16 mM; panel B from top to bottom: compounds of the invention 5.3d 3.2 mM, 5.3c 3.3 mM, 5.3b 11.7 mM, 5.3b 2.9 mM, 5.3a 3 mM, 4.6c 14.6 mM, 4.6b 15.2 mM, 4.5c 18.6 mM, 4.5b 19.6 mM, 3.9a 8 mM, 3.9a 0.51 mM, 3.9a 0.31 mM, 3.9a 0.11 mM, 3.7l 12.01 mM, 3.7l 6.01 mM, 3.7l 3 mM, 3.7l 1 mM, 3.7k 10 mM, 3.7k 3 mM, 3.7j 3 mM, 3.7j 2 mM, 3.7j 1 mM, 3.7j 0.6 mM, 3.7j 0.03 mM, 3.7j 0.02 mM, 3.7j 1 mM, 3.7i 0.3 mM, 3.7h 3 mM, 3.7h 2 mM, 3.7h 1 mM, 3.7h 0.6 mM, 3.7h 0.58 mM, 3.7h 0.5 mM, 3.7h 0.35 mM, 3.7h 0.1 mM, 3.7h 0.5 mM, 3.7h 0.35 mM, 3.7h 0.1 mM, 3.7h 0.05 mM, 3.7h 0.03 mM, 3.7h 0.02 mM, 3.7g 12.5 mM, 3.7g 9 mM, 3.7g 7.5 mM, 3.7g 5 mM, 3.7g 3 mM, 3.7g 1 mM, 3.7f 3.2 mM, 3.7f 2 mM, 3.7f 1 mM, 3.7f 0.061 mM, 3.7f 0.031 mM, 3.7f 0.015 mM). After incubation for 2 h at 4° C., the ATPase activity is measured. The solutions are subsequently centrifuged for 1 h at 4° C., 100 000×g, and the supernatants deposited on 10% SDS-PAGE (cf. FIG. 8). The gray and black histograms correspond to the concentrations at which BmrA is partially (gray) or entirely (black) extracted, according to these SDS-PAGE. The ATPase activity is in % relative to that of the protein without compound, 0.7 μmol ATP hydrolyzed/min/mg of proteins.\nThe molecules of the invention which extract BmrA in the previous example were tested at different sub-solubilizing and solubilizing concentrations, to evaluate their impact on the native and functional state of the protein. The latter is monitored by the hydrolysis of ATP which is carried out by the protein during the transport cycle, coupled with translocation of the solute. As reported previously (Matar-Merheb, R. et al. ([11])), the ATPase activity of BmrA is a highly sensitive marker of the state of the protein, the latter being particularly sensitive to the detergents used during the extraction step, where said detergents replace the lipids on contact with the membrane protein.\nProcedure. BmrA produced and enriched in the plasma membrane of E. coli C41 DE3 is prepared as described previously (Matar-Merheb, R. et al. ([11])). The membranes are diluted at 2 g/l in a 20 mM Tris-HCl buffer, pH 8.0, 100 mM NaCl, 15% glycerol, with protease inhibitors (Roche) added thereto at an amount of one tablet/100 ml. The mixture (T) is incubated for 2 h at 4° C. and the ATPase activity is measured using the coupled-enzyme system, separating off the vanadate-insensitive activity from the total activity, Centeno, F. et al. Expression of the sarcoplasmic reticulum Ca^2+-ATPase in yeast. FEBS Lett 354, 117-122 (1994) ([25])). The solutions are subsequently centrifuged for 1 h at 4° C. at 100 000×g in order to separate the extracted fraction (supernatant, S) from that which is not extracted (pellet). The supernatants are deposited on 10% SDS-PAGE and stained with Coomassie blue after migration (FIG. 8). DDM, LMNG (Chae, P. S. et al. ([6])), TritonX100 and FA3 (Lee, S. C. et al. (2013) ([9])) are tested as reference detergents. The DDM and LMNG originate from Anatrace, the Triton X100 originates from Sigma-Aldrich and the FA3 from Avanti-Polars.", "values": [{"smiles": "CCCCCCCCCCCC(=O)N[C@@H](COCc1cn(CCO[C@@H]2OC(CO)[C@@H](O)C(O)C2O)nn1)C(=O)N[C@H](CCC(=O)O)C(=O)O", "note": "(stereo partly drawn) [Compound 3.7b]", "change of the ATPase activity of BmrA on extraction": "1.5 ×"}, {"smiles": "CCCCCCCCCCCCCC(=O)N[C@@H](COCc1cn(CCO[C@@H]2OC(CO)[C@@H](O)C(O)C2O)nn1)C(=O)N[C@H](CCC(=O)O)C(=O)O", "note": "(stereo partly drawn) [Compound 3.7c]", "change of the ATPase activity of BmrA on extraction": "1.5 ×"}, {"smiles": "CCCCCCCCCCCCCC(=O)N[C@@H](COCc1cn(CCO[C@@H]2OC(CO)[C@@H](O[C@H]3OC(CO)[C@@H](O)C(O)C3O)C(O)C2O)nn1)C(=O)N[C@H](CCC(=O)O)C(=O)O", "note": "(stereo partly drawn) [Compound 3.7e]", "change of the ATPase activity of BmrA on extraction": "2 ×"}, {"smiles": "CCCCCCCCCCCCCC(=O)N[C@@H](COCc1cn(CCOCCOCCOCCOCCOCCOC)nn1)C(=O)N[C@H](CCC(=O)O)C(=O)O", "note": "[Compound 3.7g]", "change of the ATPase activity of BmrA on extraction": "1.5 ×"}, {"smiles": "CCCCCCCCCCCCC(CCCCCCCCCCCC)C(=O)N[C@@H](COCc1cn(CCO[C@@H]2OC(CO)[C@@H](O)C(O)C2O)nn1)C(=O)N[C@H](CCC(=O)O)C(=O)O", "note": "(stereo partly drawn) [Compound 3.7j]", "change of the ATPase activity of BmrA on extraction": "maintaining"}, {"smiles": "CCCCCCCCCCCCCC(=O)N[C@@H](COCc1cn(CCO[C@@H]2OC(CO)[C@@H](O)C(O)C2O)nn1)C(=O)N[C@@H](CCC(=O)O)C(=O)NCC(=O)O", "note": "(stereo partly drawn) [Compound 3.7l]", "change of the ATPase activity of BmrA on extraction": "maintaining"}]}]}
